The test system of data set [1] is L. amazonensis promastigotes. The note with it: catechin isolated from Stryphnodendron obovatum stem bark ref 47; cited from earlier work.
For the next data set, the system named is RAW 264.7 macrophages. In words: Cytotoxicity in RAW 264.7 macrophages (MTT). The class given is cell-based. The note with it: 48 h. As to the method: (§1) RAW 264.7 macrophages were cultured in polystyrene culture flasks containing DMEM medium supplemented with 10% FBS at 37 °C and 5% CO2 atmosphere. For cytotoxic evaluation, 48 h cultured cells were harvested, washed with culture medium, and distributed into 96-well culture plates at 10^5 cells/well concentration. The cells were allowed to adhere for 2 h prior to the addition of increasing inhibitor concentrations (31–1000 µg/mL). Treated cell cultures were incubated for 48 h under the same experimental conditions. After this period, cell viability was determined by colorimetric assay using MTT solution (5 mg/mL) as an indicator. The 50% cytotoxic concentration (CC50) was calculated by analysing the dose-response curves generated from the data.

Data set [2] is described as follows: Cytotoxicity in RAW 264.7 macrophages (MTT). It is filed as cell-based. Particulars: mouse, RAW 264.7 macrophages, read-out: RAW 264.7 CC50±SE. As for the experimental part: as §1
Data set [3] has as its system Leishmania infantum arginase (ARGLi). In words: ARGLi inhibition by phenolic substances (urea production). It is filed as biochemical. Particulars: 100 µM substance; 50 mM L-arginine, pH 9.5, 37 °C, 5 min.
In data set [4] the test system is L. infantum intracellular amastigotes. In words: Intracellular anti-amastigote activity in infected RAW 264.7 macrophages. The class given is cell-based, Leishmania infantum. As to the method: (§2) The intracellular anti-amastigote activity was performed according to previously described procedures[31] with some modifications. Initially, RAW 264.7 macrophages were distributed in 96-well plates and, after adherence (incubation for 2 h), cells were washed twice with phosphate buffer saline (PBS, pH 7.2). Then, the adherent cells were infected with promastigote forms of L. infantum at the stationary phase of growth in a proportion of 10 parasites/macrophage. After 4 h of interaction at 37 °C and 5% CO2 atmosphere, free parasites were washed away with PBS and infected macrophages were incubated for another 24 h to allow differentiation into amastigotes. After this time, infected cells were treated for 48 h with increasing concentrations of the selected inhibitor. Subsequently, the culture supernatant was collected for evaluation of nitric oxide production using the Griess reaction. Cells were washed with PBS, then Schneider’s medium supplemented with 5% FBS was added and the plate was incubated at 26 °C for 72 h. The parasite survival was estimated by viability of differentiated promastigote forms recovered from the cultures using MTT (5 mg/mL). The results were expressed as the percentage of viability in relation to that obtained for the control (100%). The IC50 for amastigote forms was calculated from the dose-response curves generated from the data.

Data set [5] has as its system L. infantum promastigotes. As to the kind of experiment: Inhibition of L. infantum promastigotes growth (resazurin). It is filed as cell-based, Leishmania infantum. As to the method:
The parasite growth inhibition assays were performed on 96-well microplates, where the selected ARGLi inhibitors were previously diluted (1–200 μg/mL). Subsequently, promastigote forms of L. infantum collected in late logarithmic phase (96 h) were added to microplates at the final concentration of 10^6 parasites/mL. Microplates were incubated at 26 °C for 96 h. After the incubation period, parasites viability was determined using 0.005% resazurin[30]. The 50% inhibitory concentration (IC50) was determined from the dose-response curves generated from the data.

The test system of data set [6] is L. infantum-infected RAW 264.7 macrophages. In words: Nitric oxide production by infected macrophages (Griess reaction). The note with it: 48 h treatment. It is filed as cell-based. As to the method:
as §2
In order to determine if ARGLi inhibitors were capable of modulating the host cell response, RAW 264.7 macrophages were infected with promastigote forms of L. infantum and treated with different concentrations of inhibitors for 48 h. After treatment, NO production was measured. […] This increase is similar to that observed for the reference drug Fungizone® (Figure 5(B)). The effect of caffeic acid on NO production may be a result of macrophage arginase inhibition and consequent oxidation of accumulated L-arginine by inducible NO synthase (iNOS).
Figure 5. Nitric oxide production by L. infantum-infected RAW 264.7 macrophages treated with different concentrations of ARGLi inhibitors. (A) Treatment with 3.1–200 μg/mL of rosmarinic acid (black), caffeic acid (light gray), and catechin (dark gray). (B) Treatment with 0.062–0.5 μg/mL of the reference drug fungizone. Control (white) represents the production of nitric oxide by infected and untreated macrophages. Nitrite concentration was measured by the Griess reaction and data represent mean ± SE of two independent experiments.

In general, CC50 refers to the concentration at which the toxic effect on the cells reaches its halfway point. A word on the IC50: it is the point on the concentration scale where inhibition reaches its midpoint.

Several values for one entry are separate records, joined by “and”; a condition that tells them apart may be missing. Equal entries are not always repeated.

Take `Oc1cc(O)c2c(c1)O[C@H](c1ccc(O)c(O)c1)[C@@H](O)C2` [Catechin, catechin, reference compound]: the “IC50 for L. amazonensis promastigotes” value in data set [1] is 43.2 ± 2.1 µg/mL. For the same compound, in the data set with RAW 264.7 macrophages, the “RAW 264.7 CC50±SE” value is recorded as 256.98 ± 0.64 µg/mL. The CC50 at 48 h in data set [2] was 257 µg/mL and 885 µM. Moreover, the “percentage of inhibition of ARGLi activity” value in data set [3] was 49.02 ± 14.92%. For the same compound, the “SI AMA (selectivity index CC50/IC50, intracellular amastigotes)” value in data set [4] (CC50 RAW 264.7 / IC50 intracellular amastigotes) turned out to be 3.08. Besides, the IC50 in data set [4] (Leishmania infantum, RAW264.7, 48 h, infected RAW 264.7, 48 h treatment, read-out: Intracellular amastigotes IC50±SE) was 83.2 µg/mL and 287 µM; in data set [5] (Leishmania infantum, 96 h, 26 °C, resazurin, read-out: Promastigotes IC50±SE), 115 µg/mL and 395 µM. Besides, the “Intracellular amastigotes IC50±SE” value in data set [4] (infected RAW 264.7, 48 h treatment) is 83.28 ± 10.6 µg/mL. Moreover, the “Promastigotes IC50±SE” value in data set [5] (96 h, 26 °C, resazurin) is on record as 114.8 ± 14.65 µg/mL. For the same compound, the “SI PRO (selectivity index CC50/IC50, promastigotes)” value in data set [5] (CC50 RAW 264.7 / IC50 promastigotes) is 2.23. For the same compound, the “effect on NO production by infected macrophages (in words)” value in data set [6] is recorded as “did not affect NO production”.
